Reference: US20090215028A1, “Methods and Compositions for Determining Anti-HIV Drug Susceptibility and Replication Capacity of HIV” (priority 2005, published 2009)

How the values were obtained:
Assay type in all cases: cell-based
[1] = system: HIV isolated from treatment-naïve patients (RHIN segment); test: Anti-HIV drug susceptibility assay (luciferase test vectors, 293 cells), patient-derived RHIN segment
Description: (§1) Patient-derived segment(s) corresponding to either the entire pol gene, encoding HIV protease, reverse transcriptase, integrase, and RNAse H (hereinafter “POL”), or the portion of pol encoding amino acids 319-440 of reverse transcriptase, integrase, and RNAse H (hereinafter “RHIN”), were amplified by the reverse transcription-polymerase chain reaction method (RT-PCR) using viral RNA isolated from viral particles present in the plasma or serum of HIV-infected individuals as follows. Virus was pelleted by centrifugation at 20,400×g for 60 min from plasma (typically, 1 ml) prepared from blood samples collected in evacuated tubes containing either EDTA, acid-citrate dextrose, or heparin as an anticoagulant. Virus particles were disrupted by resuspending the pellets in 200 μl of lysis buffer (4 M guanidine thiocyanate, 0.1 M Tris HCl [pH 8.0], 0.5% sodium lauryl sarcosine, 1% dithiothreitol). RNA was extracted from viral lysates by using oligo(dT) linked to magnetic beads (Dynal, Oslo, Norway). Reverse transcription was performed with Superscript III (Invitrogen) at 50 degrees for 1 hour using primer 1.
From the resultant cDNA either POL or RHIN sequences were amplified using the Advantage High Fidelity PCR kit (BD Biosciences; Clontech). POL amplification products are made using forward Primer 3 containing an ApaI site and reverse Primer 4 containing a Xho 1 site. RHIN amplification products are made using forward Primer 2 containing a PINA1 site and reverse Primer 4 containing a Xho 1 site.
A retroviral vector designed to measure antiretroviral drug susceptibility was constructed by using an infectious molecular clone of HIV-1. The vector, referred to herein as an indicator gene viral vector (IGVV), is replication defective and contains a luciferase expression cassette inserted within a deleted region of the envelope (env) gene. The IGVV is described in U.S. Pat. No. 5,837,464 (International Publication Number WO 97/27319) which is hereby incorporated by reference in its entirety. […]

[2] = system: HIV mutants comprising site-directed mutations in integrase; test: Anti-HIV drug susceptibility assay (luciferase test vectors, 293 cells), site-directed integrase mutants; details: FIG. 2
Description: A retroviral vector designed to measure antiretroviral drug susceptibility was constructed by using an infectious molecular clone of HIV-1. The vector, referred to herein as an indicator gene viral vector (IGVV), is replication defective and contains a luciferase expression cassette inserted within a deleted region of the envelope (env) gene. The IGVV is described in U.S. Pat. No. 5,837,464 (International Publication Number WO 97/27319) which is hereby incorporated by reference in its entirety. This retroviral vector was further modified to allow insertion of either the entire pol gene (POL) or the portion of pol encoding amino acids 319-440 of reverse transcriptase, the RNase H portion of reverse transcriptase, and integrase (RHIN) by engineering an Xho1 restriction enzyme recognition site into vif. Prior to doing this, an Xho 1 site in nef was deleted. Test vectors (TVs) were constructed by incorporating amplified POL or RHIN into the IGVV by using ApaI and Xho1 or PinAI and Xho1 restriction sites respectively. TVs were prepared as libraries (pools) in order to capture and preserve the pol or RHN sequence heterogeneity of the virus in the patient. […]
Susceptibility tests were carried out with the TV libraries by using viral particles comprising the RTV libraries to infect a host cell in which the expression of the indicator gene is measured. The amount of indicator gene (luciferase) activity detected in infected cells is used as a direct measure of “infectivity,” i.e., the ability of the virus to complete a single round of replication. Thus, drug resistance or sensitivity can be determined by plotting the amount of luciferase activity produced by patient derived viruses in the presence of varying concentrations of the antiviral drug. By identifying the concentration of drug at which luciferase activity is half-maximum, the IC50 of the virus from which patient-derived segment(s) were obtained for the antiretroviral agent can be determined. […]

[3] = system: HIV isolated from treatment-naïve patients (POL segment); test: Anti-HIV drug susceptibility assay (luciferase test vectors, 293 cells), patient-derived POL segment; details: 30 clinical isolates from treatment-naïve patients, FIG. 5
Description: as §1
From the resultant cDNA either POL or RHIN sequences were amplified using the Advantage High Fidelity PCR kit (BD Biosciences; Clontech). POL amplification products are made using forward Primer 3 containing an ApaI site and reverse Primer 4 containing a Xho 1 site. […]

[4] = 30 clinical isolates from treatment-naïve patients, RHIN segment, FIG. 5

O=C(NCc1ccc(F)cc1)c1nc(N2CCCCS2(=O)=O)c2cccnc2c1O [L-870,810]
mean fold change (FC) in IC50 [1, 4]: 0.86
median fold change (FC) in IC50 [1, 4]: 0.82
mean fold change (FC) in IC50 relative to HIV strain IIIb ([1]; RHIN sequences from 45 treatment-naïve patient viruses, FIG. 4): 0.83
susceptibility (IC50 relative to HIV strain IIIB) ([2]; site-directed integrase mutant N155S): reduced susceptibility
susceptibility (IC50 relative to HIV strain IIIB) ([2]; site-directed integrase mutant V72I/F121Y/T125K): reduced susceptibility
susceptibility (IC50 relative to HIV strain IIIB) ([2]; site-directed integrase mutant): reduced susceptibility
mean fold change (FC) in IC50 [3]: 0.85
median fold change (FC) in IC50 [3]: 0.85
